Consider 1 substance from patent US20220016067A1, “NOVEL ANTI-INFLAMMATORY COMPOUND, PRODUCING METHOD AND USE THEREOF” (priority 2020, published 2022).

What all share (format): cell-based
One data set deals with iNOS. In words: LPS-induced iNOS expression in RAW264.7 macrophage cells (Western blot). The note with it: LPS 200 ng/ml, PL6 50-400 μM, 24 hours. As for the experimental part: The effect of Pineapplin PL6 on the LPS-induced iNOS expression is tested in RAW264.7 macrophage cells. The iNOS/β-actin ratio is the relative expression level of iNOS and β-actin protein. The higher the expression level of iNOS, the more inflammation response occurred (as an inflammation index). RAW264.7 macrophage cells were pretreated with LPS (200 ng/ml) for 24 hours, then incubated with various concentrations (50, 100, 200 and 400 μM) of PL6 at 5% CO2 and 37° C. for 24 hours. The (−) control group is treated with LPS-free medium, and the (+) control group is treated with PL6-free LPS medium. The cell culture supernatant of each group is collected, then the protein concentration is calculated, and 30 μg of total protein is taken from each group for protein gel electrophoresis. […] The luminescence fluorescence digital analysis system (ImageQuant LAS 400 mini, GE Healthcare Life Sciences) is used for luminescence color development.
The data shown in FIG. 7 is the relative expression of iNOS protein to β-actin, which is calculated by a software, based on the values obtained from the luminescence color film using scanning optical density method and standardized to β-actin protein.
A general note: In western blotting, separated proteins are transferred to a membrane and probed.

The next data set has as its system NFκB. The data set is described as follows: LPS-induced NFκB expression (p-p65/p65) in RAW264.7 macrophage cells (Western blot). Particulars: LPS 200 ng/ml, PL6 50-400 μM, 24 hours. The procedure: In this example, effect of Pineapplin PL6 on the LPS-induced NFκB expression is further tested in the RAW264.7 macrophage cell line. The value of p-p65/p65 is the relative expression level of NFκB protein. The higher the expression level of NFκB, the more inflammation response occurred (as an inflammation index). RAW264.7 macrophage cells were pretreated with LPS (200 ng/ml) for 24 hours, then incubated with various concentrations (50, 100, 200 and 400 μM) of PL6 for 24 hours at a condition of 5% CO2 and 37° C. The (−) control group is treated with LPS-free medium, and the (+) control group is treated with PL6-free LPS medium. The cell culture supernatant of each group is collected, then the protein concentration is calculated, and 30 μg of total protein is taken from each group for protein gel electrophoresis. […] After washing with PBST, the developing agent (Western Chemiluminescent HRP Substrate) is added, and the luminescence fluorescence digital analysis system (ImageQuant LAS 400 mini, GE Healthcare Life Sciences) is used for luminescence color development.
The data shown in FIG. 8 is the relative expression of NFκB protein p-p65/p65, which is calculated by a software, based on the values obtained from the luminescence color film using scanning optical density method and standardized to β-actin protein.

For data set [1], the system named is nitric oxide production induced by LPS in RAW264.7 macrophages. The data set is described as follows: LPS-induced NO production in RAW264.7 macrophages (Griess reagent). The note with it: 200 μM and 400 μM, LPS 200 ng/ml, RAW264.7, 24 hours. As for the experimental part: RAW264.7 cells are inoculated in a 96-well plate at a density of 4×10^5 cells/well. After the cells are adhered overnight, 200 ng/ml LPS is added, the blank control group has no LPS added, and incubated at 5% CO2 and 37° C. for 24 hours. On the second day, different concentrations (50, 100, 200 and 400 μM) of Pineapplin PL6 are added to the wells. The blank control group is treated with LPS-free medium, and the blank control group is treated with PL6-free LPS medium. The cells are then cultured under the condition of 5% CO2 and 37° C. After 24 hours of incubation, 150 μl of medium for each group is collected.
A solution of 1% p-aminobenzene sulfonic acid dissolved in 5% phosphoric acid is prepared, and then mixed with 0.1% N-(1-naphthyl)ethylenediamine dihydrochloride at a ratio of 1:1 to form the Griess reagent. Solutions of sodium nitrite at concentrations of 1.5625 μM to 100 μM are prepared for making a standard curve. 150 μl of the collected medium is mixed with 50 μl of the Griess reagent, and reacted in a dark environment for 30 minutes. The change in absorbance at a wavelength of 555 nm is measured using an ELISA reader.

A further data set has as its system RAW264.7 cells. The data set is described as follows: Cytotoxicity test (Alamar blue) in RAW264.7 cells. Particulars: 25, 50, 100, 200, 400 and 800 μM, 24 hours. As for the experimental part: RAW264.7 cells are cultured in RPMI medium containing 10% fetal bovine serum, 0.2% sodium bicarbonate and 1% penicillin/streptomycin, and in a 5% CO2, 37° C. incubator. The cells are subcultured when a confluency of 70-80% is reached. RAW264.7 cells are inoculated in a 96-well plate at a density of 4×10^4 cells/well per well. After the cells are adhered for overnight incubation, Pineapplin PL6 at different concentrations (25, 50, 100, 200, 400 and 800 μM) or pineapple extract (3, 6, 12 mg/ml) is added to each well. The blank control group is treated with culture medium without the Pineapplin PL6 or pineapple extract After 24 hours of incubation, Alamar blue is used to test cytotoxicity of the Pineapplin PL6. The medium is removed, washed twice with PBS, and diluted 10 times with Alamar Blue reagent in the medium without FBS. After reaction in dark for 6 hours, the change in absorbance at a wavelength of 570 nm is measured by using an ELISA reader.
(The colour change of resazurin is a common sign of viable cells or microbes.)

In the case of “1,2,3-tricarboxylic acid-propyl-3-hydroxyphenol acrylate [Pineapplin PL6]”, in the data set on iNOS, the “iNOS protein expression (iNOS/β-actin)” value is on record as “inhibiting iNOS protein expression”. Moreover, in the data set on NFκB, the “NFκB protein expression (p-p65/p65)” value is “inhibiting NFκB protein expression”. For the same substance, the “production of nitric oxide induced by LPS” value in data set [1] is “significantly reduces”. Moreover, the “cytotoxicity to RAW264.7 cells” value in the data set on RAW264.7 cells is listed as “no obvious cytotoxicity”.
